From patent US12599584B2, “Indoline derivatives, compositions comprising them and uses thereof” (Yissum Research Development Company of The Hebrew …, priority 2016, dated 2026)
Where a name gives a salt, the structure may show the parent alone.

How the values were obtained:
[1] = tested on: NO release from LPS-activated RAW cells; test: Release of NO from LPS-activated RAW 264.7 macrophages (Griess); assay type: cell-based, mouse; details: for Lowest concentration that inhibited NO release by 25%: LPS-activated RAW cells; for Greater concentration needed to cause the same effect (NO release): substituent in position 5, compared with AN1284
Procedure: (§1) Anti-inflammatory activity was measured in RAW 264.7 macrophage cells. The cells were seeded at density of 5×10^4 per well in 48-well culture plates and grown overnight in DMEM as described above. The compounds were added to give final concentrations ranging from 1×10^−12-1×10^−6 M of the respective salts per well. The cells were incubated for 2 h at 37° C. prior to stimulation with lipopolysaccharide (LPS, 2.5 μg/mL) from Escherichia coli (Sigma-Aldrich). Supernatants were harvested after 8 h for detection of TNF-α and after 24 h for nitric oxide (NO). NO production was detected by a colourimetric method using Griess reagent (0.2% naphthylenediamine dihydrochloride, and 2% sulfanilamide in 5% phosphoric acid), which measures the concentration of nitrite, a stable metabolite produced from NO. TNF-α protein was detected by means of the sandwich ELISA method using an ELISA kit (Biolegend, San Diego, CA, USA) according to the manufacturer's instructions.

[2] = tested on: TNF-α release from LPS-activated RAW cells; test: Release of TNF-α from LPS-activated RAW 264.7 macrophages (ELISA); assay type: cell-based, mouse; details: for Lowest concentration that inhibited TNF-α release by 25%: LPS-activated RAW cells; for Greater concentration needed to cause the same effect (TNF-α release): substituent in position 5, compared with AN1284
Procedure: as §1

LPS-injected mice = test: Pro-inflammatory cytokine proteins in tissues of mice injected with LPS; assay type: in vivo, mouse; details: sc, 2-3 doses, 15 min before LPS 10 mg/kg ip; 4 h after LPS
Procedure: Male Balb/c OlaHsd mice (aged 7-8 weeks) were injected subcutaneously (sc) with saline, or with AN1279, AN1283, AN1284, AN1287 and AN1298 at doses that contain approximately the equivalent amount of the base. LPS (10 mg/kg) was given by intraperitoneal injection 15 min later. The mice were sacrificed 4 h later, which was previously shown to be the optimal time for elevation of cytokines in the spleen and brain. The spleen, brain and liver were rapidly removed and frozen in liquid nitrogen and stored at −80° C. until use. A piece of the cortex was taken for gene analysis of cytokines. Blood was collected into heparinized tubes and plasma separated by centrifugation. For measurement of cytokine protein, tissues were weighed and diluted in PBS containing 0.8% NaCl, 0.144% NaHPO4, 0.024% KH2PO4 and protease inhibitor cocktail (Sigma) and homogenised in an Ultra-TURRAX® homogeniser at a speed of 24,000 rpm and centrifuged at 14000 g for 15 min at 4° C. Cytokines were detected by means of Elisa kits (Biolegend) and protein concentration was determined by a bicinchoninic acid protein assay kit (Thermo Scientific, IL, USA).

[3] = tested on: TNF-α in human macrophages; test: TNF-α in human macrophages after elevation by LPS (ELISA); assay type: cell-based
Procedure: Blood (20 ml was collected from healthy human subjects on the day of the experiment in anti-coagulant tubes and diluted in PBS 1:1. Ficol (12 mL) was added into the bottom of the tube, centrifuged slowly for 30 min at 1400 g and peripheral blood mononuclear cells (PBMCs) were separated. Monocytes were isolated by addition of 15 ml of MACS buffer. After centrifugation at 1400 g for 10 min at 4° C., the supernatant fluid was removed, monocytes were isolated by means of a MACS-Monocyte isolation kit (cat: 130-091-153) and incubated at 4-8° C. for 10 min Monocytes (500,000/well) were seeded in 12 multi well plate and cultured for 7 days in RPMI+L-Glutamin+FBS (10%) and PenStrep and h-MCSF (20 ng/mL) to convert them into macrophages. […] TNF-α, IL-1β and IL-6 protein were detected by means of the sandwich ELISA method using an ELISA kit for human cytokines (Biolegend, San Diego, CA, USA) according to the manufacturer's instructions.

[4] = tested on: IL-6 in human macrophages; test: IL-6 in human macrophages after elevation by LPS (ELISA); assay type: cell-based; details: 24 h after LPS; 1 × 10^−9 M
Procedure: Blood (20 ml was collected from healthy human subjects on the day of the experiment in anti-coagulant tubes and diluted in PBS 1:1. Ficol (12 mL) was added into the bottom of the tube, centrifuged slowly for 30 min at 1400 g and peripheral blood mononuclear cells (PBMCs) were separated. Monocytes were isolated by addition of 15 ml of MACS buffer. After centrifugation at 1400 g for 10 min at 4° C., the supernatant fluid was removed, monocytes were isolated by means of a MACS-Monocyte isolation kit (cat: 130-091-153) and incubated at 4-8° C. for 10 min Monocytes (500,000/well) were seeded in 12 multi well plate and cultured for 7 days in RPMI+L-Glutamin+FBS (10%) and PenStrep and h-MCSF (20 ng/mL) to convert them into macrophages. Compounds (AN1284, AN1297, AN1298, 1×10^−10 or 1×10^−9 M) were added 2 h before LPS (100 μg/mL Sigma Ltd. phenol extracted from Escherichia coli 055: B5) and incubated at 37° C., 5% CO2. TNF-α, IL-1β and IL-6 protein were detected by means of the sandwich ELISA method using an ELISA kit for human cytokines (Biolegend, San Diego, CA, USA) according to the manufacturer's instructions.

With `COC(=O)CCC1CNc2ccccc21.Cl` (centres unmarked) [AN647] the “Lowest concentration that inhibited NO release by 25%” value [1] was 100 pM and the “Lowest concentration that inhibited TNF-α release by 25%” value [2] was 100 pM.
With `Cc1ccc(S(=O)(=O)O)cc1.NCCCC1CNc2ccccc21` (centres unmarked) [AN1282, 3-(Indolin-3-yl)propan-1-amine di-p-Toluenesulfonate] the “Lowest concentration that inhibited NO release by 25%” value [1] was 100 pM and the “Lowest concentration that inhibited TNF-α release by 25%” value [2] was 100 pM.
With `COC(=O)CCN1CCc2ccccc21.Cl` [AN1283, Methyl 3-(Indolin-1-yl)propanoate Hydrochloride] the “IL-6 protein in the brain” value (LPS-injected mice) was “reduction” and the “IL-6 protein in the liver” value (LPS-injected mice) was “reduction”.
For `COC(=O)CCN1CCc2cc(Cl)ccc21.Cc1ccc(S(=O)(=O)O)cc1` [AN1285, Methyl 3-(5-Chloroindolin-1-yl)propanoate p-Toluenesulfonate], the “Greater concentration needed to cause the same effect (NO release)” value [1] was 100 fold and the “Greater concentration needed to cause the same effect (TNF-α release)” value [2] was 100 fold.
`COc1ccc2c(c1)CCN2CCCNC(C)C` [AN1298, N-Isopropyl-3-(5-methoxyindolin-1-yl)propan-1-amine di-Hydrochloride] was tested, and the “Greater concentration needed to cause the same effect (NO release)” value [1] was “does not affect the activity”, the “Greater concentration needed to cause the same effect (TNF-α release)” value [2] was “does not affect the activity” and the “Reduction (%) ± STD compared to LPS alone, TNF-α” value (“Reduction (%) ± STD … TNF-α” below) ([3]; 6 h after LPS, 1 × 10^−9 M) was 50.4 ± 13.5%. The “Reduction (%) ± STD … TNF-α” value ([3]; 12 h after LPS, 1 × 10^−10 M) was 28.0 ± 7.9%, the “Reduction (%) ± STD … TNF-α” value ([3]; 12 h after LPS, 1 × 10^−11 M) was 14.6 ± 4.2% and the “Reduction (%) ± STD … TNF-α” value ([3]; 24 h after LPS, 1 × 10^−9 M) was 72.2 ± 9.7%. The “Reduction (%) ± STD compared to LPS alone, IL-6” value [4] was 54.6 ± 18.8%, the “IL-6 protein in the brain” value (LPS-injected mice) was “reduction” and the “IL-6 protein in the liver” value (LPS-injected mice) was “reduction”.
